Marks after values point to notes of the source that are not given here.
Columns and labels:
[1] = Plasma pharmacokinetics, noncompartmental; format: in vivo, human; conditions: for t 1/2 / AUC(0-t) / AUC / Cmax / half-life: mean (SD); for AUC(0-t) / AUC / Cmax / half-life / Tmax: human, plasma, oral
Description: To assess plasma concentrations of WNT974, its active metabolite LHA333, and encorafenib, serial blood samples were collected on days 1 and 15 of cycle 1, and pre-dose blood samples were collected on days 2, 8, 16, and 22 of cycle 1, and on day 1 of cycles 2, 3, and 4. PK parameters were determined using noncompartmental methods. The PK analysis set included all patients with at least one available valid PK concentration measurement who received at least one dose of study drug.

[2] = system: patients with BRAF V600E-mutant mCRC with RNF43 mutations or RSPO fusions; assay: Safety: adverse events (CTCAE v4.03), phase Ib; conditions: human, in vivo
Description: Patients who developed hypercalcemia (any grade) were treated with bisphosphonates per institutional standards.
The primary endpoints of the phase Ib study were the incidence of DLTs and exposure to WNT974 and encorafenib as measured by PK parameters. A DLT was defined as an AE or abnormal laboratory value assessed as unrelated to disease, disease progression, intercurrent illness, or concomitant medications that occurred within the first 28 days of treatment with WNT974 + encorafenib + cetuximab. The secondary endpoints for this study included the objective response rate (ORR; RECIST 1.1), disease control rate (DCR), and frequency and severity of AEs (Common Terminology Criteria for Adverse Events v4.03).
Tumor assessments were performed at baseline (screening) and every 6 weeks after starting study treatment until disease progression, initiation of subsequent antineoplastic therapy, or death, whichever occurred first. End-of-treatment tumor assessment was conducted within 14 days of receiving the last dose or treatment discontinuation. Safety was assessed throughout the study and included physical examinations, vital signs, weight, performance status evaluation, laboratory evaluations, dermatologic evaluations, ophthalmological examinations, bone loss assessments, cardiac assessments, and documentation of all non-serious and serious AEs (SAEs). […]

[3] = system: CRC preclinical models; design: method as in PMID 31233627, PMID 28695896, PMID 23847203; conditions: in vitro and in vivo; cited from earlier work
[4] = system: patients with advanced solid tumors; design: method as in PMID 33941878; conditions: cited from earlier work
[5] = system: patients with advanced solid tumors; HER2-negative breast cancer or pancreatic cancer; conditions: in vivo; cited from earlier work
[6] = 200 mg, All cohorts, encorafenib 200 mg once daily, day 15 of cycle 1, plasma
[7] = COMBO5, day 15 of cycle 1, plasma
[8] = COMBO7.5, day 15 of cycle 1, plasma
[9] = COMBO10, day 15 of cycle 1, plasma

Question: With COC(=O)N[C@@H](C)CNc1nccc(-c2cn(C(C)C)nc2-c2cc(Cl)cc(NS(C)(=O)=O)c2F)n1 [Encorafenib, encorafenib] as the molecule, how does the “t 1/2” value ([1]; All cohorts, encorafenib 200 mg once daily, day 15 of cycle 1, plasma) read?
Answer: 4.29 (2.42)^b h

Question: What about the T max ([1]; All cohorts, encorafenib 200 mg once daily, day 15 of cycle 1, plasma, median (range)) of the same molecule?
Answer: 1.95 (0.48-7.17) h

Question: What about the “Mean AUC and maximum plasma drug concentration across treatment combinations” value ([1]; day 15 of cycle 1) of the same molecule?
Answer: generally comparable across all treatment combinations

Question: And the AUC(0-t) ([1]; 200 mg, All cohorts (N = 17), encorafenib 200 mg once daily, day 15 of cycle 1, plasma)?
Answer: 13700 ng·h/mL

Question: And the AUC [1, 6]?
Answer: 13800 ng·h/mL

Question: What about the Cmax [1, 6] of the same molecule?
Answer: 2840 ng/mL

Question: And the half-life [1, 6]?
Answer: 4.3 h

Question: What about the Tmax ([1]; 200 mg, All cohorts, encorafenib 200 mg once daily, day 15 of cycle 1, plasma, median (range)) of the same molecule?
Answer: ~2 h

Question: Which results are given for Cc1cc(-c2ncc(CC(=O)Nc3ccc(-c4cnccn4)cn3)cc2C)ccn1 [WNT974]?
Answer: Reported serious AEs of bone fracture [2]: 6; Anti-tumor activity [3]: demonstrated anti-tumor activity; t 1/2 [1, 7]: 4.74 (2.17) h; t 1/2 [1, 8]: 5.37 (0.697) h; Dose dependence of mean AUC ([1]; WNT974 5, 7.5, 10 mg, day 15 of cycle 1): increased in a dose-proportional manner; AUC(0-t) ([1]; COMBO5 (5 mg WNT974 once daily + encorafenib + cetuximab), day 15 of cycle 1, plasma): 220 ng·h/mL; AUC [1, 7]: 227 ng·h/mL; Cmax [1, 7]: 51 ng/mL; half-life [1, 7]: 4.7 h; Tmax ([1]; COMBO5, day 15 of cycle 1, plasma, median (range)): 1 h; AUC(0-t) ([1]; COMBO7.5 (7.5 mg WNT974 once daily + encorafenib + cetuximab), day 15 of cycle 1, plasma): 384 ng·h/mL; AUC [1, 8]: 384 ng·h/mL; Cmax [1, 8]: 93.4 ng/mL; half-life [1, 8]: 5.4 h; Tmax ([1]; COMBO7.5, day 15 of cycle 1, plasma, median (range)): 1.02 h; AUC(0-t) ([1]; COMBO10 (10 mg WNT974 once daily + encorafenib + cetuximab), day 15 of cycle 1, plasma): 460 ng·h/mL; AUC [1, 9]: 542 ng·h/mL; Cmax [1, 9]: 42.9 ng/mL; half-life [1, 9]: 11 h; Tmax ([1]; COMBO10, day 15 of cycle 1, plasma, median (range)): 4 h; AE frequency: decreased appetite ([4]; across all doses): 45.7%; AE frequency: dysgeusia ([4]; across all doses): 50%; AE frequency: fatigue ([4]; across all doses): 31.9%; AE frequency: nausea ([4]; across all doses): 33.0%; AE frequency: vomiting ([4]; across all doses): 30.9%; Bone-related toxicities considered related to the study treatment [4]: 5; Number of bone-related toxicities [4]: 7; Patients who experienced bone-related toxicities [4]: 6 patients

B1: vantictumab: an anti-Frizzled antibody, given with chemotherapy (antibody, chains of the INN, looked up, V domains shown)
VH: EVQLVESGGGLVQPGGSLRLSCAASGFTFSHYTLSWVRQAPGKGLEWVSVISGDGSYTYYADSVKGRFTISSDNSKNTLYLQMNSLRAEDTAVYYCARNFIKYVFANWGQGTLVTVSS
VL: DIELTQPPSVSVAPGQTARISCSGDNIGSFYVHWYQQKPGQAPVLVIYDKSNRPSGIPERFSGSNSGNTATLTISGTQAEDEADYYCQSYANTLSLVFGGGTKLTVL
Question: Which “Tolerability / bone safety in phase I trials” value [5] does the source give for B1 here?
Answer: closed early due to high rates of bone fracture

From article PMC10020809, “A Phase Ib/II Study of WNT974 + Encorafenib + Cetuximab in Patients With BRAF ^V600E-Mutant KRAS Wild-Type Metastatic Colorectal Cancer” (The Oncologist, 2023)
